Source: US20060270631A1, “Methods for the treatment and prevention of angiogenic diseases” (priority 2005, published 2006)
pIC50: −log10 of the molar value.

What was measured:
phosphorylated ERK1/2 = experiment: Western analysis of phosphorylated ERK1/2 in human RECs; format: cell-based
Method: (§1) Western Blotting. Protein concentrations were determined using the fluorescamine assay (Bohlen et al., Arch Biochem Biophys 155: 213 (1973)) with bovine serum albumin as the standard. Samples were normalized for equal amounts of protein per lane (100 μg), separated by sodium dodecylsulfate-polyacrylamide gel electrophoresis and electrotransferred to nitrocellulose membranes. For SK analyses, membranes were blocked with 5% nonfat milk in Tris-buffered saline with Tween 20 and probed with an anti-SK rabbit polyclonal antibody at a 1:50 dilution, washed and incubated with […] antibodies conjugated to horseradish peroxidase (1 hr in 3% nonfat milk). The blots were then washed 4 times for 5 minutes at room temperature, developed with SuperSignal development reagents (Pierce Biotechnology, Inc., Rockford, Ill.) and exposed to Kodak XAR film. […]
(§2) Western analyses were conducted to evaluate the effects of Compound II on signaling proteins known to be regulated in endothelial cells by VEGF or TNFα. […] Cell lysates from cells treated with VEGF for 15 minutes were then analyzed for levels of phosphorylated ERK1/2 as a measure of signaling through the Ras-mediated proliferation pathway. Samples from cells treated with TNFα were analyzed for activation of NFκB, i.e. phosphoNFκB, and the down-stream proteins, cyclooxygenase-2 (Cox-2), E-selectin and VCAM-1. […]

endogenous SK [1] = experiment: Cellular S1P formation assay in human chondrocytes (HC); format: cell-based; settings: HCs; read-out: drug concentration that decreases S1P formation by 50%
Method: (§3) Cellular S1P formation assay. Cells were grown to confluency in 24-well tissue culture plates and serum-starved for 24 hours as described above. Cells were then treated with 1% DMSO (as the drug vehicle), 20 μM dimethylsphingosine, or the indicated concentration of an SK inhibitor for 4 hours. The cells were then incubated with [^3H]sphingosine for 15 minutes, and the formation of [^3H]S1P was measured as previously described (French et al., Cancer Res 63: 5962 (2003)). In some assays, the cells were serum-starved for 24 hours and then treated with VEGF (50 ng/mL) alone or in the presence of an SK inhibitor for an additional 12 hours. [^3 H]Sphingosine was then added for 15 minutes, and its conversion to [^3H]S1P was measured as indicated above.
(§4) A cell-based assay in which the phosphorylation of exogenously added [^3H]sphingosine to [^3H]S1P by endogenous SK can be quantified (French et al., Cancer Res 63: 5962 (2003)) was used to evaluate the effects of test compounds on the activity of SK in intact cells. In this assay, cells are incubated with [^3 H]sphingosine for an appropriate period of time, and then [^3H]sphingosine and [^3H]S1P (formed by endogenous SK activity) are separated by extraction and levels of both species are determined by scintillation counting. […] Similarly, the enzymatic activity of SK in bovine RECs, and its sensitivity to SK inhibitors were assessed. […]

E-selectin and VCAM-1 = experiment: Western analysis of TNFα-induced E-selectin and VCAM-1 in human RECs; format: cell-based; settings: TNFα 100 ng/mL, 6 hours
Method: as §1, §2

endogenous SK [2] = experiment: VEGF-stimulated SK activity in bovine RECs; format: cell-based; settings: VEGF 50 ng/mL, 12 hours, serum-starved bovine RECs
Method: FIG. 5. Effects of Compound II on VEGF-stimulated SK activity in RECs. Bovine RECs were serum-starved for 24 hours and then left untreated or incubated with VEGF (50 ng/mL) in the presence of DMS (D) or the indicated concentration (in μM) of Compound II for 12 hours. [^3H]Sphingosine was then added to the cells and its conversion to [^3H]S1P was determined. Values represent the mean±SD of duplicate samples in a typical experiment.
as §3
The effects of VEGF on SK activity in bovine RECs using the same cell-based assay as above, except that serum was removed from the cultures 24 hours before the addition of the SK inhibitor and VEGF were tested. […]

endogenous SK [3] = experiment: Cellular S1P formation assay in HUVECs; format: cell-based, human; settings: read-out: drug concentration that decreases S1P formation by 50%
Method: FIG. 2. Inhibition of S1P production in HUVECs by SK inhibitors. […] After 15 minutes, cells were lysed and extracted with chloroform: methanol, and the amounts of [^3H]sphingosine in the organic phase and [^3H]S1P in the aqueous phase were then determined. Values represent the mean±sd SK activity.
Cellular S1P formation assay. Cells were grown to confluency in 24-well tissue culture plates and serum-starved for 24 hours as described above. Cells were then treated with 1% DMSO (as the drug vehicle), 20 μM dimethylsphingosine, or the indicated concentration of an SK inhibitor for 4 hours. The cells were then incubated with [^3H]sphingosine for 15 minutes, and the formation of [^3H]S1P was measured as previously described (French et al., Cancer Res 63: 5962 (2003)). […] [^3 H]Sphingosine was then added for 15 minutes, and its conversion to [^3H]S1P was measured as indicated above.
A cell-based assay in which the phosphorylation of exogenously added [^3H]sphingosine to [^3H]S1P by endogenous SK can be quantified (French et al., Cancer Res 63: 5962 (2003)) was used to evaluate the effects of test compounds on the activity of SK in intact cells. […] Similarly, the enzymatic activity of SK in bovine RECs, and its sensitivity to SK inhibitors were assessed. […]

endogenous SK [4] = experiment: Cellular S1P formation assay in HFLS-RA cells; format: cell-based, human; settings: read-out: drug concentration that decreases S1P formation by 50%
Method: as §3, §4

endogenous SK [5] = experiment: Cellular SK activity in bovine retinal endothelial cells; format: cell-based; settings: 25 μg/mL (approximately 80 μM), 4 hours
Method: FIG. 3. Inhibition of cellular SK activity in RECs. Bovine retinal endothelial cells were incubated with 20 μM dimethylsphingosine (DMS) or 25 μg/mL Compound I, Compound II or Compound V (approximately 80 μM for each compound) for 4 hours before the addition of 0.4 μCi of [^3H]sphingosine. After 15 minutes, cells were lysed and extracted with chloroform: methanol. The total amounts of [^3H]sphingosine in the organic phase and [^3H]S1P in the aqueous phase were then determined. Values represent the mean±SD of duplicate samples in a typical experiment.
as §3
A cell-based assay in which the phosphorylation of exogenously added [^3H]sphingosine to [^3H]S1P by endogenous SK can be quantified (French et al., Cancer Res 63: 5962 (2003)) was used to evaluate the effects of test compounds on the activity of SK in intact cells. In this assay, cells are incubated with [^3 H]sphingosine for an appropriate period of time, and then [^3H]sphingosine and [^3H]S1P (formed by endogenous SK activity) are separated by extraction and levels of both species are determined by scintillation counting. We have used a number of cell lines in this assay to confirm that the SK inhibitors are active in multiple intact cell systems. For example, human umbilical vein endothelial cells (HUVECs) are commonly used as a model of human vasculature. […] Similarly, the enzymatic activity of SK in bovine RECs, and its sensitivity to SK inhibitors were assessed. […] Each of inhibitors of SK (Compound I, Compound II and Compound V) was also active against the endogenous SK activity in the bovine RECs.

Oc1ccc(Nc2nc(-c3ccc(Cl)cc3)cs2)cc1 [Compound II]
VEGF-promoted phosphorylation of ERK1/2 (phosphorylated ERK1/2; VEGF 50 ng/mL, 15 minutes): completely abrogated
residual pERK1/2 in serum-starved cells (phosphorylated ERK1/2; human RECs, no VEGF): eliminated
pIC50 (endogenous SK [1]): 6.44
TNFα-induced up-regulation of E-selectin expression (E-selectin and VCAM-1): completely blocked
TNFα-induced up-regulation of VCAM-1 expression (E-selectin and VCAM-1): completely blocked
concentration completely inhibiting the SK activity response to VEGF (endogenous SK [2]): ≥ 1.3 µM
pIC50 (endogenous SK [3]): 6.70
pIC50 (endogenous SK [4]): 6.72
endogenous SK activity in bovine RECs (endogenous SK [5]): active
